Experimental data reported in patent US20220273689A1, “POTENTIATION OF ANTIVIRAL NUCLEOBASES AS RNA VIRUS THERAPY” (REGENTS OF THE UNIVERSITY OF MINNESOTA, priority 2019, published 2022).
Entries after “also recorded” stand apart in the source; their conditions may differ. Like-named read-outs stand apart in the source and are kept apart here.

What was measured:
DENV replicon = format: cell-based, Dengue virus (DENV); conditions: for antiviral activity of nucleobase alone: 0.6 μM nucleobase, without 6-MMPR; for antiviral (anti-replicon) activity when supplemented with 6-MMPR: nucleobase supplemented with 0.01 μM 6-MMPR
DENV-2 viral replicon [1] = conditions: for TTI, tissue culture therapeutic index (CC50/EC50): DENV replicon BHK cells
DENV-2 viral replicon [2] = test: microbe, parasite or virus in culture; conditions: Dengue virus, DENV2, BHK, 72 h
[3] = Cell viability assay (MTS) in DENV replicon cells; conditions: hamster
[4] = tested on: DENV replicon cells (BHK); test: Cell viability assay (MTS) in DENV replicon cells; conditions: for CC50: DENV replicon BHK cells, MTS, 72 h
DENV = DENV titer reduction assay in Huh-7 cells, dose-response; format: cell-based; conditions: Dengue virus
ZIKV = test: Potentiation in replication-competent ZIKV titer reduction assay using Huh-7 cells; conditions: 0.1 μM 6-MMPR, infectious virus titer
Description: DENV and ZIKV. Huh7 cells were plated in each well of a 24 well plate (1×10^5/well). Twenty-four hours later, cells were inoculated with DENV 2 or ZIKV at a multiplicity of infection (MOI) of 0.05. Two hours post-inoculation, inoculum was retired and fresh medium containing treatment was added. Columns 1 to 6 were treated with increasing concentrations of 6-MMPR (0, 0.025, 0.05, 0.1, 0.2 and 0.4 μM). Rows A to D were treated with 0, 25, 50 and 100 μM of T-1105. Supernatants were collected after 72 hours post-infection and infectious virions were analyzed by plaque assay as extent of infectious virus production.

DENV 2 = test: Potentiation in replication-competent DENV assay using Huh-7 cells (plaque assay, MacSynergy II); conditions: for synergy/potentiation with 6-MMPR for reduction in DENV replication: Huh7 cells, 0.1 μM 6-MMPR, infectious virus titer (FIG. 9); for potentiation/synergy with 6-MMPR of anti-DENV activity: Huh-7 cells, matrix of 6-MMPR and T-1105, infectious virus titer (FIG. 6)
Description: Huh7 cells were plated in each well of a 24 well plate (1×10^5/well). Twenty-four hours later, cells were inoculated with DENV 2 or ZIKV at a multiplicity of infection (MOI) of 0.05. Two hours post-inoculation, inoculum was retired and fresh medium containing treatment was added. Columns 1 to 6 were treated with increasing concentrations of 6-MMPR (0, 0.025, 0.05, 0.1, 0.2 and 0.4 μM). Rows A to D were treated with 0, 25, 50 and 100 μM of T-1105. Supernatants were collected after 72 hours post-infection and infectious virions were analyzed by plaque assay as extent of infectious virus production. For FIG. 5, Huh7 cells were inoculated with DENV or ZIKV and treated with different concentrations of T-1105 (0, 3, 9, 27, 51 or 243 μM), T-1106 (0, 6.7, 20, 60, 180 or 540 μM) and T-705 (same concentrations as T-1106) in combination with 0.1 μM AM28 or DMSO. After 72 hours post infection supernatants were collected and analyzed for viral yield by plaque assay.

HCoV-OC43 = test: Potentiation against HCoV-OC43 in Huh7 cells; format: cell-based, human betacoronavirus OC43; conditions: HCoV-OC43, combination with 6-MMPR, MacSynergy; listed as favipiravir
Description: HCoV-OC43. Huh7 cells were 12,500 Huh7 cells were seeded in a 96 well plate. Next day, the cells were inoculated with OC43 virus at a MOI (multiplicity of infection) of 0.5 for two hours. Next, the inoculum was removed and cells were treated with different combinations of 6MMPr and T-705 or remdesivir 1 μM (RDV) as positive control. Three wells per treatment were used. Cells were incubated for 5 days. Infected and treated cells were analyzed for cell viability by MTS and absorbance was measured at 490 nm.

IAV = test: Protection of Huh7 cells from IAV-induced cytopathic effects (MTS); format: cell-based, influenza A virus
[5] = Safety of the combination in DENV mouse model; format: in vivo; conditions: health of the mice / body weight
Description: The mice were treated with Vehicle, the combination T-1105 (3a)+6-MMPR, 1105 only, and PBS. Viral genomes were detected and quantitated by RT-qPCR at 2 or 4 days post infection. […] These studies help predict a safe dose and timing of administration of the combination of favipiravir (T705) and 6-MMPR to treat RNA virus infections, such as SARS-CoV-2.

[6] = combination with 6-MMPR (AM28), MacSynergy II

Structure (SMILES): NC(=O)c1nc[nH]n1 [Compound 1a, 1H-1,2,4-triazole-3-carboxamide]
- antiviral activity of nucleobase alone (DENV replicon): no antiviral activity
- antiviral (anti-replicon) activity when supplemented with 6-MMPR (DENV replicon): an increase in antiviral activity was observed
- TTI, tissue culture therapeutic index (CC50/EC50) (DENV-2 viral replicon [1]): 204
- EC50 (DENV-2 viral replicon [2]): 4.9 ± 1.6 µM
- CC50 at 72 h [3]: > 665 µM
- CC50 [4]: > 1000 µM
- cytotoxicity ([4]; at 1000 μM): did not show cytotoxicity

Structure (SMILES): NC(=O)c1ncn([C@@H]2O[C@H](CO)[C@@H](O)[C@H]2O)n1 [Compound 1b, 1-((2R,3R,4S,5R)-3,4-dihydroxy-5-(hydroxymethyl)tetrahydrofuran-2-yl)-1H-1,2,4-triazole-3-carboxamide, reference compound]
- EC50 (DENV-2 viral replicon [2]): 1.3 ± 0.1 µM

Structure (SMILES): NC(=O)c1nc[nH]c1O [Compound 2a, 5-hydroxy-1H-imidazole-4-carboxamide]
- antiviral activity of nucleobase alone (DENV replicon): no antiviral activity
- antiviral (anti-replicon) activity when supplemented with 6-MMPR (DENV replicon): an increase in antiviral activity was observed
- TTI, tissue culture therapeutic index (CC50/EC50) (DENV-2 viral replicon [1]): 9.6
- EC50 (DENV-2 viral replicon [2]): 2.4 ± 0.1 µM
- CC50 [4]: 23 ± 4.2 µM

Structure (SMILES): NC(=O)c1ncn([C@@H]2O[C@H](CO)[C@@H](O)[C@H]2O)c1O [Compound 2b, 1-((2R,3R,4S,5R)-3,4-dihydroxy-5-(hydroxymethyl)tetrahydrofuran-2-yl)-5-hydroxy-1H-imidazole-4-carboxamide, reference compound]
- TTI, tissue culture therapeutic index (CC50/EC50) (DENV-2 viral replicon [1]): 2.2
- EC50 (DENV-2 viral replicon [2]): 15 ± 7.8 µM
- CC50 [4]: 33 ± 12 µM

Structure (SMILES): NC(=O)c1nccnc1O [Compound 3a, 3-hydroxypyrazine-2-carboxamide]
- EC50 (DENV): 20 ± 11 µM
- synergy with 6-MMPR for reduction in DENV replicon replication (DENV replicon; [6]): Stronger synergy
- synergy with 6-MMPR for reduction in DENV replicon replication (DENV replicon; combination with 6-MMPR (AM28), MacSynergy II, listed as T-1105): synergistic effect
- times more active than nucleobase 5a (favipiravir) (DENV-2 viral replicon [1]; DENV replicon): 5
- TTI, tissue culture therapeutic index (CC50/EC50) (DENV-2 viral replicon [1]): 32
- cellular toxicity (Huh-7 cells): absence of cellular toxicity
- EC50 (DENV-2 viral replicon [2]): 21 ± 0.7 µM
- CC50 at 72 h [3]: > 665 µM
- CC50 [4]: > 665 µM
- synergy/potentiation with 6-MMPR for reduction in ZIKV replication (ZIKV): showed synergy
- synergy/potentiation with 6-MMPR for reduction in ZIKV replication (ZIKV; listed as T-1105): synergistic effect
- synergy/potentiation with 6-MMPR for reduction in DENV replication (DENV 2): synergistic effect
- potentiation/synergy with 6-MMPR of anti-DENV activity (DENV 2): strongly potentiates
- potentiation/synergy with 6-MMPR of anti-DENV activity (DENV 2; listed as T-1105): synergistic effect

Structure (SMILES): NC(=O)c1nccn([C@@H]2O[C@H](CO)[C@@H](O)[C@H]2O)c1=O [Compound 3b, 4-((2R,3R,4S,5R)-3,4-dihydroxy-5-(hydroxymethyl)tetrahydrofurran-2-yl)-3-oxo-3,4-dihydropyrazine-2-carboxamide]
- EC50 (DENV): 60 ± 22 µM
- synergy with 6-MMPR for reduction in DENV replicon replication (DENV replicon; [6]): did not result in significant synergy
- synergy with 6-MMPR for reduction in DENV replicon replication (DENV replicon; combination with 6-MMPR (AM28), MacSynergy II, listed as T-1106): synergistic effect
- TTI, tissue culture therapeutic index (CC50/EC50) (DENV-2 viral replicon [1]): 8.8
- EC50 (DENV-2 viral replicon [2]): 113 ± 11 µM
- CC50 [4]: > 1000 µM
- synergy/potentiation with 6-MMPR for reduction in ZIKV replication (ZIKV): did not potentiate
- synergy/potentiation with 6-MMPR for reduction in ZIKV replication (ZIKV; listed as T-1106): does not produce a synergistic effect
- synergy/potentiation with 6-MMPR for reduction in DENV replication (DENV 2): almost entirely an additive result
- synergy/potentiation with 6-MMPR for reduction in DENV replication (DENV 2; listed as T-1106): does not produce a synergistic effect

Structure (SMILES): Nc1nc(N)c2[nH]cnc2n1 [Compound 4a, 9H-purine-2,6-diamine]
- CC50 [4]: 13 ± 2.1 µM

Structure (SMILES): NC(=O)c1nc(F)cnc1O [Compound 5a, 6-fluoro-3-hydroxypyrazine-2-carboxamide, reference compound]
- synergy with 6-MMPR for reduction in DENV replicon replication (DENV replicon): synergistic effect
- synergy with 6-MMPR in inhibiting production of infectious coronavirus particles (HCoV-OC43): synergistic antiviral effect; also recorded: synergistically increases; also recorded: clear synergistic effect
- synergy with 6-MMPR against IAV (IAV): synergistic antiviral effect; also recorded: clear synergy peak
- protection of cells from IAV-induced cytopathic effects (CPE) (IAV; Huh7 cells, in combination with 6MMPR, listed as favipiravir): can protect cells; also recorded: protection of human cells from IAV-induced cell death
- safety of the combination with 6-MMPR [5]: safe
- EC50 (DENV-2 viral replicon [2]): 110 ± 30 µM
- CC50 at 72 h [3]: > 665 µM
- CC50 [4]: > 1000 µM
- synergy/potentiation with 6-MMPR for reduction in ZIKV replication (ZIKV): showed synergy
- synergy/potentiation with 6-MMPR for reduction in ZIKV replication (ZIKV; listed as T-705): synergistic effect
- synergy/potentiation with 6-MMPR for reduction in ZIKV replication (ZIKV; listed as favipiravir): synergistic antiviral effect
- synergy/potentiation with 6-MMPR for reduction in DENV replication (DENV 2; listed as T-705): synergistic effect
- synergy/potentiation with 6-MMPR for reduction in DENV replication (DENV 2; listed as favipiravir): synergistic antiviral effect

Structure (SMILES): COc1c(C)c2c(c(O)c1C/C=C(C)/C=C(\C)C(=O)O)C(=O)OC2 [Compound 6, (2E,4E)-6-(4-hydroxy-6-methoxy-7-methyl-3-oxo-1,3-dihydroisobenzofuran-5-yl)-2,4-dimethylhexa-2,4-dienoic acid, reference compound]
- TTI, tissue culture therapeutic index (CC50/EC50) (DENV-2 viral replicon [1]): 4.7
- EC50 (DENV-2 viral replicon [2]): 0.3 ± 0.03 µM
- CC50 [4]: 1.4 ± 0.4 µM

Structure (SMILES): CSc1ncnc2c1ncn2[C@@H]1O[C@H](CO)[C@@H](O)[C@H]1O [Compound 6-MMPR, (2R,3S,4R,5R)-2-(hydroxymethyl)-5-(6-(methylthio)-9H-purin-9-yl)tetrahydrofuran-3,4-diol]
- antiviral activity of 6-MMPR alone (DENV replicon; 0.01 μM, alone): lack of antiviral activity
- potentiation of nucleobase anti-replicon activity (DENV replicon; 6-MMPR 0.0025 and 0.005 μM): did not potentiate nucleobase anti-replicon activity
- anti-replicon activity of their own (DENV replicon; 6-MMPR 0.0025 and 0.005 μM, alone): nor did they have anti-replicon activity of their own
